Measured values reported in article PMC8125951, “Exploring the 2′-Hydroxy-Chalcone Framework for the Development of Dual Antioxidant and Soybean Lipoxygenase Inhibitory Agents” (Molecules, 2021).
Where “and” joins values, the source holds several entries; their conditions need not be identical. Equal entries are not always repeated. Where two headings read alike, the source gives them in different places.

Columns and labels:
[1] = Competition of the tested compounds with DMSO for hydroxyl radicals; settings: 100 μM
Excerpt: Among the reactive oxygen species (ROS), the hydroxyl (^•OH) free radical is possibly the most toxic, reacting with several biological important molecules such as DNA, lipids, or carbohydrates. Polyunsaturated fatty acids are particularly vulnerable by free radicals. Iron released from damaged cells is more likely to be readily available to catalyze the generation of ^•OH radicals. Thus, we tried to test the ability of our compounds to scavenge hydroxyl radicals determining the competition of selected chalcones and aurones with DMSO for hydroxyl radicals. Hydroxyl radicals were generated using the Fe^3+/ascorbic acid system and expressed as a percentage inhibition of formaldehyde production in the presence of each compound at 100 μM.
The hydroxyl radicals generated by the Fe^3+ / ascorbic acid system, were detected by the determination of formaldehyde produced from the oxidation of DMSO (Table 2). A negative control using the same % DMSO was used. Trolox was used as reference compound [75].

[2] = Interaction with the stable free radical DPPH (reducing activity); settings: 100 μM
Protocol: The first assay refers to the interaction of the compounds with the stable free radical DPPH and it is a fast, simple, cost-effective, and widely used method, where the DPPH radical reacts directly with the antioxidant and is decolorized. This interaction indicates their radical scavenging ability in an iron-free system. The scavenging effect of the synthesized analogues on the DPPH radical was evaluated according to the methods of Hadjipavlou et al..
To an ethanolic solution of DPPH (100 μM) in absolute ethanol, an equal volume of the compounds dissolved in DMSO was added (100 μM). […]

[3] = Inhibition of linoleic acid lipid peroxidation induced by AAPH
Excerpt: The second technique is based on the ability of the compounds to inhibit lipid peroxidation of linoleic acid induced by 2,2′-Azobis(2-amidinopropane) dihydrochloride (AAPH) radical (Table 2). AAPH-induced linoleic acid oxidation has been developed as a quick and reliable method for measuring the antioxidant activity. The thermal free radical producer (AAPH) generates free radicals in the solution which cause the oxidation of linoleic acid, and the method is a measure of how effective antioxidants protect against lipid peroxidation in vitro. Oxidation of linoleic acid by AAPH is followed by UV spectrophotometry in a highly diluted sample [61].
2,2′-Azobis(2-amidinopropane) dihydrochloride (AAPH) was used as a free radical initiator. Ten microliters of the 16 mM linoleic acid sodium salt solution was added to the UV cuvette containing 0.93 mL of 0.05 M phosphate buffer, pH 7.4 prethermostated at 37 °C. The oxidation reaction was initiated at 37 °C under air by the addition of 50 μL of 40 mM AAPH solution. Oxidation was carried out in the presence of the synthesized compounds (10 μL, from a stock solution of 10 mM in DMSO). In the assay without antioxidant, lipid oxidation was measured in the presence of the same level of DMSO.

[4] = biological target: T1, soybean lipoxygenase (Glycine max, UniProt P08170); experiment: Soybean LOX inhibition study in vitro; type: biochemical; settings: for inhibition at 100 µM: read-out: Inhibition of Soybean Lipoxygenase 100 μM (%), at 100 μM
T1 sequence (P08170 1-839): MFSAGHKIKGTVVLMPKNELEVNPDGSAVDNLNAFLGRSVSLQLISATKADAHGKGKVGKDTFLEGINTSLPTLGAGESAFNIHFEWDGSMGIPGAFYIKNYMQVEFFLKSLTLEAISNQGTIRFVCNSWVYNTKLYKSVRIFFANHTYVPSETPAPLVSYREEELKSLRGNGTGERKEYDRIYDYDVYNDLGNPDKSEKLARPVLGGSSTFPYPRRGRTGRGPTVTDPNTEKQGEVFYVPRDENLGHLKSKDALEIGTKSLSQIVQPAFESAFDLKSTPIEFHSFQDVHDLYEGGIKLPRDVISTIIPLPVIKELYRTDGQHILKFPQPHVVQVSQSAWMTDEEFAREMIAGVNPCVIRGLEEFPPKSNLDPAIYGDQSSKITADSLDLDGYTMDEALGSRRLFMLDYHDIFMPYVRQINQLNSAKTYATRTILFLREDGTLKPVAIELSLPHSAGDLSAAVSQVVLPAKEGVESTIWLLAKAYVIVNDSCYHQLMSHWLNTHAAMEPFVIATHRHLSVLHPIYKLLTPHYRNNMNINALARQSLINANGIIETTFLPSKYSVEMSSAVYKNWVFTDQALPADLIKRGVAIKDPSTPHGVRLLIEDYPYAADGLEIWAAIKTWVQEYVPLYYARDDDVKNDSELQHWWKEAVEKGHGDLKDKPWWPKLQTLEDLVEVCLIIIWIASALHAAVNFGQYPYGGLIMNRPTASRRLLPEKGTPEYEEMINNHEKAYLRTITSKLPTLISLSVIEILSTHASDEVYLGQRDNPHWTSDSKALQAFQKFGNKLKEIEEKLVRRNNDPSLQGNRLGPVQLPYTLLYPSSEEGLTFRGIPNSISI
Protocol: Furthermore, as an indication of their anti-inflammatory activity, all the molecules were tested as inhibitors of soybean lipoxygenase (LOX). The enzyme lipoxygenase catalyzes the first two steps in the metabolism of arachidonic acid, which is cleaved from membrane phospholipids to leukotrienes (LTB4). LTB4 generation is considered to be important in the pathogenesis of neutrophil-mediated inflammatory diseases. For this study, the UV absorbance-based soybean LOX assay was used, which is a plant enzyme with satisfactory homology with the human 5-LOX [61, 62, 63, 64, 65, 66].
The tested compounds dissolved in DMSO were incubated at room temperature with sodium linoleate (0.1 mL) and 0.2 mL of enzyme solution ([…] in saline) in Tris buffer pH 9.

[5] = ABTS radical cation decolorization assay; settings: 100 μM
Protocol: The ABTS radical cation decolorization assay was used as another antioxidant activity estimation protocol (Table 2). Oxidation of ABTS with potassium persulfate generates directly the radical with no involvement of an intermediate radical, which is then reduced upon adding electron-donating antioxidants.
In order to produce the ABTS radical cation (ABTS^+·), ABTS stock solution in water (7 mM) was mixed with potassium persulfate (2.45 mM) and left in the dark at room temperature for 12–16 h before use. Our published experimental technique was used (1). The results are recorded after 1 min of the mixing solutions at 734 nm. The results were compared to the appropriate standard inhibitor Trolox.

[6] = read-out: Inhibition of Soybean Lipoxygenase IC50

| Structure (SMILES) | HO· (%) competition with DMSO for hydroxyl radicals [1] | Interaction with the Free Radical DPPH (%) ([2]; 20 min) | Interaction with the Free Radical DPPH (%) ([2]; 60 min) | Inhibition of Lipid Peroxidation of Linoleic Acid Induced by AAPH Radical (%) ([3]; 100 μM) | IC50 [4, 6] | inhibition at 100 µM [4] | Inhibition of Lipid Peroxidation of Linoleic Acid Induced by AAPH Radical (%) ([3]; 0 min) | Inhibition of Lipid Peroxidation of Linoleic Acid Induced by AAPH Radical (%) ([3]; 3 min) | Inhibition of Lipid Peroxidation of Linoleic Acid Induced by AAPH Radical (%) ([3]; 6 min) | Inhibition of Lipid Peroxidation of Linoleic Acid Induced by AAPH Radical (%) ([3]; 9 min) | IC50 [4] | ABTS+· % [5] |
| --- | --- | --- | --- | --- | --- | --- | --- | --- | --- | --- | --- | --- |
| COc1cc(OC)c(OC)cc1/C=C/C(=O)c1ccccc1O [Compound 3b, 2′-hydroxy-2,4,5-trimethoxy-chalcone] | no | no | no | 67.3% | 75 µM |  |  |  |  |  |  |  |
| COCOc1ccc(C(=O)/C=C/c2cc(OC)c(OC)cc2OC)c(O)c1 [Compound 3c, 2′-hydroxy-4′-methoxymethoxy-2,4,5-trimethoxy-chalcone] |  | no | 2.3% | 39.4% | 45 µM |  |  |  |  |  |  |  |
| COc1ccc(/C=C/C(=O)c2cc(Cl)ccc2O)cc1OC [Compound 3d, 5′-chloro-3,4-dimethoxy-2′-hydroxy-chalcone] |  | no | no | no |  | 32% |  |  |  |  |  |  |
| COc1cccc(/C=C/C(=O)c2cc(Cl)ccc2O)c1OC [Compound 3e, 5′-chloro-2,3-dimethoxy-2′-hydroxy-chalcone] |  | no | no | 20.0% | 100 µM |  |  |  |  |  |  |  |
| COc1ccc(/C=C/C(=O)c2cc(Br)ccc2O)cc1OC [Compound 3f, 5′-bromo-3,4-dimethoxy-2′-hydroxy-chalcone] |  | totally inactive and no | no | inactive and no |  | 38% |  |  |  |  |  |  |
| COc1ccc(/C=C/C(=O)c2cc(Br)cc(Br)c2O)cc1OC [Compound 3g, 3′,5′-dibromo-3,4-dimetoxy-2′-hydroxy-chalcone] |  | totally inactive and no | no | inactive and 31.0% | 68.5 µM |  |  |  |  |  |  |  |
| COCOc1ccc(/C=C/C(=O)c2cc(Br)ccc2O)cc1OCOC [Compound 3h, 5′-bromo-3,4-dimethoxymethoxy-2′-hydroxy-chalcone] |  |  | 6.0% | 65.6% | 55 µM |  |  |  |  |  |  |  |
| COCOc1ccc(/C=C/C(=O)c2cc(Br)cc(Br)c2O)cc1OCOC [Compound 3i, 3′,5′-bromo-3,4-dimethoxymethoxy-2′-hydroxy-chalcone] |  | totally inactive and no | no | 93.0% | 67.5 µM |  | 95.6% | 98.6% | 96.9% | 99.2% |  |  |
| O=C(O)c1ccc(/C=C/C(=O)c2ccccc2O)cc1 [Compound 3j, 4-carboxy-2′-hydroxy-chalcone] |  | no | no | no | 100 µM |  |  |  |  |  |  |  |
| O=C(O)c1ccc(/C=C/C(=O)c2cc(Cl)ccc2O)cc1 [Compound 3k, 4-carboxy-5′-chloro-2′-hydroxy-chalcone] |  | no | no | no | 67.5 µM |  |  |  |  |  |  |  |
| O=C(/C=C/c1ccccc1)c1ccccc1O [Compound 3l, 2′-hydroxy-chalcone] |  | no | no | 87.6% |  |  | 87.6% | 93.2% | 95.7% | 94.3% | 100 µM |  |
| COC(=O)c1ccc(/C=C/C(=O)c2ccccc2O)cc1 [Compound 5, 4-Methoxycarbonyl-2′-Hydroxy-Chalcone] |  | no | no | 100% | 100 µM |  | 95.4% | 96.9% | 92.5% | 98.9% |  |  |
| C[C@H](Cc1ccc(O)c(O)c1)[C@@H](C)Cc1ccc(O)c(O)c1 [NDGA, Nordihydroguaiaretic acid, reference compound] |  | 87.0% | 93.0% |  |  |  |  |  |  |  |  |  |
| Cc1c(C)c2c(c(C)c1O)CCC(C)(C(=O)O)O2 (stereo not shown) [Trolox, reference compound] | 82% | 93.0% | 93.6% | 92.0% |  |  |  |  |  |  |  | 93% |
